One block for each compound: values may come before it.
Columns and labels:
[1] = tested on: cotton melon aphid (Aphis gossypii (Glover)); assay: Test F: control of cotton melon aphid through contact and/or systemic means; type: in vivo; details: 144 h, tested at 250 ppm, okra plant, 6 days
Experimental: (§1) Test compounds were formulated using a solution containing 10% acetone, 90% water and 300 ppm Activator 90® non-ionic surfactant (Loveland Products, Loveland, Colo., USA). The formulated compounds were applied in 1 mL of liquid through an atomizer nozzle positioned 1.27 cm (0.5 inches) above the top of each test unit. Test compounds were sprayed at the rates indicated, and each test was replicated three times.
[…] This was pre-infested with 30-40 insects on a piece of leaf according to the cut-leaf method, and the soil of the test unit was covered with a layer of sand.
Test compounds were formulated and sprayed at 250 and/or 50 ppm. After spraying, the test units were maintained in a growth chamber for 6 days at 19° C. and 70% relative humidity. Each test unit was then visually assessed for insect mortality.

[2] = tested on: potato leafhopper (Empoasca fabae (Harris)); assay: Test D: control of potato leafhopper through contact and/or systemic means; type: in vivo; details: 144 h, Soleil bean plant, adults, 6 days; for mortality at 50 ppm: tested at 50 ppm; for mortality at 250 ppm: tested at 250 ppm
Experimental: as §1
For evaluating control of potato leafhopper (Empoasca fabae (Harris)) through contact and/or systemic means, the test unit consisted of a small open container with a 5-6-day-old Soleil bean plant (primary leaves emerged) inside. White sand was added to the top of the soil, and one of the primary leaves was excised prior to application of the test compound.
Test compounds were formulated and sprayed at 250 and/or 50 ppm. After spraying of the formulated test compound, the test units were allowed to dry for 1 hour before they were post-infested with 5 potato leafhoppers (18-to-21-day-old adults). A black, screened cap was placed on the top of the test unit, and the test units were held for 6 days in a growth chamber at 20° C. and 70% relative humidity. Each test unit was then visually assessed for insect mortality.

Compound: O=C(CC(c1ccc(Cl)c(Cl)c1)C(F)(F)F)Nc1ccc(Cl)c(C(=O)Nc2ccc(F)cc2F)c1 (stereo not drawn) [Compound 52, 3,4-dichloro-N-[4-chloro-3-[[(2,4-difluorophenyl)amino]carbonyl]phenyl]-β-(trifluoro-methyl)benzenepropanamide]
mortality at 250 ppm [1]: ≥ 80%
mortality at 50 ppm [2]: ≥ 80%
mortality at 250 ppm [2]: ≥ 80%

Compound: O=C(C[C@H](c1cccc(C(F)(F)F)c1)C(F)(F)F)Nc1ccc(Cl)c(C(=O)Nc2ccc(F)cc2F)c1 [Compound 103, (βR)—N-[4-chloro-3-[[(2,4-difluorophenyl)amino]carbonyl]phenyl]-β,3-bis(trisfluoromethyl)benzenepropanamide]
mortality at 50 ppm [2]: ≥ 80%

Compound: O=C(CC(c1cccc(C(F)(F)F)c1)C(F)(F)F)Nc1ccc(Cl)c(C(=O)Nc2ccc(F)cc2F)c1 (stereo not drawn) [Compound 5, N-[4-chloro-3-[[(2,4-difluorophenyl)amino]carbonyl]phenyl]-β,3-bis(trifluoromethyl)benzenepropanamide]
mortality at 250 ppm [2]: ≥ 80%

Compound: O=C(CC(c1ccc(Cl)c(Cl)c1)C(F)(F)F)Nc1ccc(Cl)c(C(=O)Nc2ccc(F)cc2)c1 (stereo not drawn) [Compound 1, 3,4-dichloro-N-[4-chloro-3-[[(4-fluorophenyl)amino]carbonyl]phenyl]-β-(trifluoro-methyl)benzenepropanamide]
mortality at 250 ppm [2]: ≥ 80%

Compound: O=C(CC(c1ccc(F)c(Cl)c1)C(F)(F)F)Nc1ccc(Cl)c(C(=O)Nc2ccc(F)cc2F)c1 (stereo not drawn) [Compound 115, 3-chloro-N-[4-chloro-3-[[(2,4-difluorophenyl)amino]carbonyl]phenyl]-4-fluoro-β-(trifluoromethyl)benzenepropanamide]
mortality at 50 ppm [2]: ≥ 80%

melting point: 96 to 99 °C
Compound: O=C(CC(c1cccc(C(F)(F)F)c1)C(F)(F)F)Nc1ccc(Cl)c(C(=O)NCc2ccc(F)cc2F)c1 (stereo not drawn) [Compound 148, N-[4-chloro-3-[[(2,4-difluorophenyl)methylamino]carbonyl]phenyl]-β,3-bis(trifluoromethyl)benzenepropanamide]

Compound: O=C(CC(c1cc(Cl)cc(Cl)c1)C(F)(F)F)Nc1ccc(Cl)c(C(=O)Nc2ccc(F)cc2F)c1 (stereo not drawn) [Compound 60, 3,5-dichloro-N-[4-chloro-3-[[(2,4-difluorophenyl)amino]carbonyl]phenyl]-β-(trifluoro-methyl)benzenepropanamide]
mortality at 50 ppm [2]: ≥ 80%
mortality at 250 ppm [2]: ≥ 80%

From patent publication US20220386609A1, “META-DIAMIDE INSECTICIDES” (FMC Corporation, priority 2019, published 2022)
